One block for each compound: values may come before it.
How the values were obtained:
rMaBGA [1] = biological target: T1, rMaBGA (Marinomonas sp. BSi20584, UniProt Z9SNG8Y577); test: steady-state kinetics, nonlinear Michaelis-Menten fit; galactose by coupled enzymatic assay; format: biochemical; settings: pH and temperature not stated
T1 construct: predicted signal peptide (first 28 aa) removed; codon-optimised, pET-28a(+), E. coli BL21(DE3), Ni-NTA purified, tag not reported cut; about 100 kDa on SDS-PAGE
T1 sequence (Z9SNG8Y577 29-897): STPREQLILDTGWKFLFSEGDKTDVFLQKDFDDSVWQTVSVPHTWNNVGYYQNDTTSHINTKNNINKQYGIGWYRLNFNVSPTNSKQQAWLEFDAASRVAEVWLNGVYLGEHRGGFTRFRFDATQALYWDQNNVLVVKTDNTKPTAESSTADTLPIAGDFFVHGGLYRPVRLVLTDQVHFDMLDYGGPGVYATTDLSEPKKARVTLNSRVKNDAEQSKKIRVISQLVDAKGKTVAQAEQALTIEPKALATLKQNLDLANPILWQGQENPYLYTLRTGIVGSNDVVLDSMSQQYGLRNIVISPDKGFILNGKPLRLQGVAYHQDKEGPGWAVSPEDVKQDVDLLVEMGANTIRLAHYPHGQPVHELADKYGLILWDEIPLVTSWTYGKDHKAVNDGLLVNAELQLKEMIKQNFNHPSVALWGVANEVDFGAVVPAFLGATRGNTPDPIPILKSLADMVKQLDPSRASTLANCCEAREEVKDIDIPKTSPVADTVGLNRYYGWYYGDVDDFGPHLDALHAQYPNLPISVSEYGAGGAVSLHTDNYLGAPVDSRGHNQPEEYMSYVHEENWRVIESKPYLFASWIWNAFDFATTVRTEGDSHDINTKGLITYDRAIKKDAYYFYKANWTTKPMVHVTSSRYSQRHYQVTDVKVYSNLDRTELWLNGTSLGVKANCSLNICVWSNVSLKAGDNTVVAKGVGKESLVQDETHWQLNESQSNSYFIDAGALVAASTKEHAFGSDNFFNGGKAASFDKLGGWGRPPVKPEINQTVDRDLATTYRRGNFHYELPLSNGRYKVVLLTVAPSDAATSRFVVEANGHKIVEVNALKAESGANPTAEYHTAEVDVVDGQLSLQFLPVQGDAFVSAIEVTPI
Source text: steady-state kinetics, nonlinear Michaelis-Menten fit; galactose by coupled enzymatic assay on rMaBGA

rMaBGA [2] = biological target: T1, rMaBGA; test: steady-state kinetics, nonlinear Michaelis-Menten fit; o-nitrophenol absorbance at […] nm; format: biochemical; settings: 0.1–10 mM substrate; standard assay 10 mM PBS, 30 °C (not restated for kinetics)

Km (rMaBGA [1]; 1–50 mM substrate): 7020 ± 1180 µM
SMILES: CC(=O)N[C@H]1C(O)O[C@H](CO)[C@@H](O[C@@H]2O[C@H](CO)[C@H](O)[C@H](O)[C@H]2O)[C@@H]1O (stereo partly drawn) [Galβ-(1,4)-GlcNAc]

Km (rMaBGA [2]): 294 ± 44 µM
SMILES: O=[N+]([O-])c1ccccc1O[C@@H]1O[C@H](CO)[C@H](O)[C@H](O)[C@H]1O [ONPG]

Km (rMaBGA [1]; 1–40 mM substrate): 2110 ± 484 µM
SMILES: CC(=O)N[C@H]1C(O)O[C@H](CO)[C@@H](O)[C@@H]1O[C@@H]1O[C@H](CO)[C@H](O)[C@H](O)[C@H]1O (stereo partly drawn) [Galβ-(1,3)-GlcNAc]

Source: PMC10608614, “Biochemical Insights into a Novel Family 2 Glycoside Hydrolase with Both β-1,3-Galactosidase and β-1,4-Galactosidase Activity from the Arctic” (Marine Drugs, 2023)
